Here are results for eight compounds from PubChem BioAssay (NCI).

Test systems include UO-31 renal; SK-MEL-28 melanoma; IGROV1 ovarian; UACC-62 melanoma; SW-620 colon; A549 NSCLC; HCT-116 colon; M14 melanoma; OVCAR-5 ovarian; SF-295 CNS; PC-3 prostate; SNB-19 CNS; LOX IMVI melanoma; MDA-MB-231 breast; SF-539 CNS; NCI-H226 lung; K-562 leukemia.
Common to all, as to test: growth of human tumour cells (NCI), 48 h

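Test compounds were applied to cells in 96-well plates for 48 hours at 5 doses. At the TGI there is no net growth.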

Consider `COC(=O)C1(C(=O)OC)CC2=C(S(=O)(=O)c3ccccc3)C[C@H](C#N)[C@H]2C1`, for which the TGI in the assay with UO-31 renal, with SK-MEL-28 melanoma, in the assay with IGROV1 ovarian, with UACC-62 melanoma, in the assay with SW-620 colon and in the assay with A549 NSCLC was over 100 µM throughout. For the same compound, the TGI with HCT-116 colon, in the assay with M14 melanoma, in the assay on OVCAR-5 ovarian, with SF-295 CNS, in the assay with PC-3 prostate and in the assay with SNB-19 CNS was over 100 µM throughout. Besides, the TGI in the assay with LOX IMVI melanoma, with MDA-MB-231 breast, with SF-539 CNS and in the assay on NCI-H226 lung was over 100 µM throughout.

Turning to `CCc1ccccc1NC(=O)C(=O)CC(=O)c1sc(Nc2ccccc2Cl)nc1C`, the TGI in the assay on UO-31 renal is over 100 µM; in the assay with SK-MEL-28 melanoma, over 100 µM; in the assay with K-562 leukemia it was over 100 µM; with IGROV1 ovarian, over 100 µM; in the assay with UACC-62 melanoma, over 100 µM; in the assay on SW-620 colon, 69.9 µM. In addition, the TGI with A549 NSCLC was 80 µM; in the assay on HCT-116 colon, 50.4 µM; in the assay with M14 melanoma, 63.7 µM; with OVCAR-5 ovarian, over 100 µM; with SF-295 CNS it was 99.2 µM; with PC-3 prostate, over 100 µM. The TGI with SNB-19 CNS was over 100 µM; with LOX IMVI melanoma, 44 µM; in the assay with MDA-MB-231 breast, over 100 µM; in the assay with SF-539 CNS it was 66.1 µM; in the assay on NCI-H226 lung, over 100 µM.

Consider `COC1=CC(=O)C2C(C1=O)C(c1ccc(OC)c(OC)c1)[C@H]2C` (some centres not stated), for which the TGI with UO-31 renal is over 100 µM; with SK-MEL-28 melanoma, 39.3 µM; with K-562 leukemia, 54.4 µM; with IGROV1 ovarian, over 100 µM; in the assay on UACC-62 melanoma it was over 100 µM; in the assay on SW-620 colon, 40.6 µM. Further, the TGI was over 100 µM with A549 NSCLC; 31.9 µM in the assay with HCT-116 colon; 34.9 µM in the assay on M14 melanoma; over 100 µM in the assay on OVCAR-5 ovarian; over 100 µM in the assay with SF-295 CNS; over 100 µM with SNB-19 CNS. Further, the TGI was 40.4 µM in the assay with LOX IMVI melanoma, over 100 µM in the assay with SF-539 CNS and over 100 µM in the assay on NCI-H226 lung.

For `COC(=O)[C@H](COC(=O)/C=C/c1ccc(OC(C)=O)c(OC(C)=O)c1)NC(=O)/C=C/c1ccc(OC(C)=O)c(OC(C)=O)c1`, the TGI is 94 µM in the assay with SK-MEL-28 melanoma; over 100 µM in the assay with K-562 leukemia; 43 µM with IGROV1 ovarian; 31.9 µM in the assay on UACC-62 melanoma; over 100 µM with SW-620 colon; over 100 µM with A549 NSCLC. Moreover, the TGI is 36.2 µM with HCT-116 colon; 54.3 µM in the assay on M14 melanoma; 49.7 µM in the assay on OVCAR-5 ovarian; 31.2 µM in the assay with PC-3 prostate; 35.8 µM with SNB-19 CNS; 95.6 µM with LOX IMVI melanoma. The TGI in the assay on MDA-MB-231 breast was 36.8 µM; in the assay on SF-539 CNS it was over 100 µM; with NCI-H226 lung, 56.7 µM.

Take `Oc1cccc2c1[nH]c1c(C3=C[C@@]4(O)CC/C=C\CCCCN5CC[C@@H]3[C@]3(CC6/C=C\CCCCN6[C@H]34)C5)nccc12` (some centres not stated): the TGI with UO-31 renal stood at 3.5 µM; in the assay with SK-MEL-28 melanoma it was 3.73 µM; with K-562 leukemia, 2.01 µM; with IGROV1 ovarian, 3.18 µM; in the assay with UACC-62 melanoma, 3.26 µM; in the assay with SW-620 colon it was 3.44 µM. For the same compound, the TGI in the assay on A549 NSCLC came out at 4.39 µM; in the assay on HCT-116 colon, 2.74 µM; in the assay on M14 melanoma it was 2.45 µM; in the assay with OVCAR-5 ovarian, 2.81 µM; in the assay on SF-295 CNS, 3.29 µM; with PC-3 prostate it was 3.87 µM. Also, the TGI in the assay with SNB-19 CNS was determined as 14.6 µM; with LOX IMVI melanoma, 2.04 µM; in the assay on MDA-MB-231 breast, 2.81 µM; in the assay with SF-539 CNS, 3.74 µM; in the assay with NCI-H226 lung, 5.17 µM.

Regarding `CCn1c2ccccc2c2cc(NC(=O)c3c(NCCNCCO)nc(=O)[nH]c3C)ccc21`, the TGI in the assay on UO-31 renal, in the assay with SK-MEL-28 melanoma, with K-562 leukemia, in the assay on IGROV1 ovarian, in the assay with UACC-62 melanoma and in the assay on SW-620 colon was over 100 µM throughout. Also, the TGI in the assay with A549 NSCLC, with HCT-116 colon, in the assay with M14 melanoma, with OVCAR-5 ovarian, with SF-295 CNS and in the assay with PC-3 prostate was over 100 µM in each case. Further, the TGI in the assay on SNB-19 CNS, in the assay on LOX IMVI melanoma, in the assay on MDA-MB-231 breast, in the assay with SF-539 CNS and in the assay on NCI-H226 lung was over 100 µM in each case.

For `O=C(N/N=C(\c1nc2ccc(Cl)cc2[nH]c1=O)C(O)c1ccccc1Cl)c1ccncc1` (configuration not stated), the TGI in the assay on UO-31 renal, in the assay on SK-MEL-28 melanoma, with K-562 leukemia, in the assay on IGROV1 ovarian, in the assay with UACC-62 melanoma and with SW-620 colon was over 100 µM throughout. The TGI with A549 NSCLC, in the assay on HCT-116 colon, in the assay on M14 melanoma, in the assay on OVCAR-5 ovarian, in the assay with SF-295 CNS and with SNB-19 CNS was over 100 µM in each case. The TGI in the assay on LOX IMVI melanoma, in the assay with SF-539 CNS and with NCI-H226 lung was over 100 µM each time.

As to `Cc1ccc(S(=O)(=O)Nn2c(O)c(C#N)c(-c3ccc(N(C)C)cc3)c(C#N)c2=O)cc1`, the TGI in the assay on SK-MEL-28 melanoma, in the assay on K-562 leukemia, with IGROV1 ovarian, in the assay with UACC-62 melanoma, in the assay on SW-620 colon and in the assay on A549 NSCLC was over 50 µM each time. Moreover, the TGI is over 50 µM with HCT-116 colon; over 50 µM with OVCAR-5 ovarian; 5.32 µM in the assay with SF-295 CNS; over 50 µM in the assay with PC-3 prostate; over 50 µM with SNB-19 CNS; over 50 µM in the assay on LOX IMVI melanoma. Also, the TGI with MDA-MB-231 breast, in the assay with SF-539 CNS and with NCI-H226 lung was over 50 µM each time.
